Tests used:
[1] = system: relapsed or refractory diffuse large B-cell lymphoma (DLBCL) or follicular lymphoma (FL); test: phase 2 study (NCT01897571): objective response to tazemetostat by NGS molecular profile of archive tumor; format: in vivo, human
Description: […]. […] The primary study endpoint is objective overall response rate.
During screening, archive tumor- and/or plasma-derived circulating tumor DNA (ctDNA) samples were obtained. Archive tumor was analyzed prospectively for EZH2-activating mutations Y646F, Y646N, Y646X (Y646H, Y646C, and Y646S), A682G, and A692V using a cobas® EZH2 Mutation Test (Roche Molecular Systems, Inc., Pleasanton, CA, USA). Next generation sequencing (NGS) was performed retrospectively on DNA derived from archive tumor and plasma samples to identify somatic mutations, amplifications, and translocations using an NHL-specific 62-gene panel on the Illumina HiSeq 2500 platform (Illumina, Inc., San Diego, CA, USA) with 100 bp paired-end reads (Table 1).
ctDNA was approximately 20,000 X for mutations and 3700 X for structural alterations. Sequencing data were aligned to the human reference sequence (hg19) and analyzed using validated cancer genome analysis algorithms (Personal Genome Diagnostics, Baltimore, MD, USA). EZH2 mutation detection rates in archive tumor were ~12% in DLBCL and 19% in FL in the total phase 2 cohort (Table 2), consistent with previous reports.

[2] = oral bioavailability; details: in vivo
[3] = system: advanced solid tumors or B-cell lymphomas; test: phase 1 part of phase 1/2 study (NCT01897571), tazemetostat monotherapy
[4] = Genetic Profile 1, patients matching profile (19)
[5] = Genetic Profile 1, patients not matching profile (73)
[6] = Genetic Profile 2, patients matching profile (26)
[7] = Genetic Profile 2, patients not matching profile (66)

Structure (SMILES): CCN(c1cc(-c2ccc(CN3CCOCC3)cc2)cc(C(=O)NCc2c(C)cc(C)[nH]c2=O)c1C)C1CCOCC1 [tazemetostat]
- Nonresponder (SD/PF/UK), % [1, 4]: 42.1%
- Responder (CR/PR), % [1, 4]: 57.9%
- Nonresponder (SD/PF/UK), % [1, 5]: 80.8%
- Responder (CR/PR), % [1, 5]: 19.2%
- Nonresponder (SD/PD/UK), % [1, 6]: 42.3%
- Responder (CR/PR), % [1, 6]: 57.7%
- Nonresponder (SD/PD/UK), % [1, 7]: 84.8%
- Responder (CR/PR), % [1, 7]: 15.2%
- Response preference ([1]; gene EZH2, P-value 0.0253): Mutant
- Response preference ([1]; gene MYD88 L273P, P-value 0.0841): Mutant
- Response preference ([1]; gene STAT6, P-value 0.0753): Mutant
- objective overall response rate ([1]; patients matching multigene predictor: wild-type MYC and/or HIST1H1E with mutated STAT6 and/or MYD88 in archive tumor (11/19)): ~ 58%
- objective overall response rate ([1]; patients not matching the multigene predictor (14/73)): ~19%
- oral bioavailability [2]: orally bioavailable
- safety profile as monotherapy ([3]; monotherapy, patients): acceptable
- objective responses ([3]; phase 1, adult patients, tumors exhibiting mutated or wild-type EZH2): objective responses to tazemetostat were observed

— patent US20230201212A1, “INHIBITORS OF EZH2 AND METHODS OF USE THEREOF” (Epizyme, Inc., priority 2017, published 2023)
